One data set addresses T1, PCAF (Homo sapiens, UniProt Q92831).
T1 construct: gene KAT2B
Also on record: Intact protein LC/MS covalent labelling, fragments in pools of five, 200 uM each, 4 °C. Particulars: 24 h, 4 °C, pool of five; 200 µM; covalent.

Another data set addresses T2, NUDT7 (Homo sapiens, UniProt P0C024).
T2 construct: residues 14-235, E. coli, pNIC28-Bsa4, N-terminal His6 tag removed by TEV, construct 26672 Da
Details: Intact protein LC/MS covalent labelling, fragments in pools of five, 200 uM each, 4 °C. Particulars: 24 h, 4 °C, pool of five; 200 µM; covalent.

In another data set the target is T3, OTUB2 (OTUB2A) (Homo sapiens, UniProt Q96DC9).
T3 construct: full length residues 1-234, E. coli BL21(DE3)-R3, His tag removed by TEV, construct 27312 Da
T3 sequence (Q96DC9 1-234): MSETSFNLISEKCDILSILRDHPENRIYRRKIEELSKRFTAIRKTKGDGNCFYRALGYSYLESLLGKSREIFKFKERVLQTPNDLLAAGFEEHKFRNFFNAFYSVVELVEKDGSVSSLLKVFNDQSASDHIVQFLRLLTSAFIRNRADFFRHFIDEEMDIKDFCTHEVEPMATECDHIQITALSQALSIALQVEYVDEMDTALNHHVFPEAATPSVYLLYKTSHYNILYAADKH
Details: Intact protein LC/MS covalent labelling, fragments in pools of five, 200 uM each, 4 °C. Conditions: 24 h, 4 °C, pool of five; 200 µM; covalent.

In the next data set the target is T4, BSA (Bos taurus, UniProt P02769).
T4 construct: gene ALB
T4 sequence (P02769 whole entry): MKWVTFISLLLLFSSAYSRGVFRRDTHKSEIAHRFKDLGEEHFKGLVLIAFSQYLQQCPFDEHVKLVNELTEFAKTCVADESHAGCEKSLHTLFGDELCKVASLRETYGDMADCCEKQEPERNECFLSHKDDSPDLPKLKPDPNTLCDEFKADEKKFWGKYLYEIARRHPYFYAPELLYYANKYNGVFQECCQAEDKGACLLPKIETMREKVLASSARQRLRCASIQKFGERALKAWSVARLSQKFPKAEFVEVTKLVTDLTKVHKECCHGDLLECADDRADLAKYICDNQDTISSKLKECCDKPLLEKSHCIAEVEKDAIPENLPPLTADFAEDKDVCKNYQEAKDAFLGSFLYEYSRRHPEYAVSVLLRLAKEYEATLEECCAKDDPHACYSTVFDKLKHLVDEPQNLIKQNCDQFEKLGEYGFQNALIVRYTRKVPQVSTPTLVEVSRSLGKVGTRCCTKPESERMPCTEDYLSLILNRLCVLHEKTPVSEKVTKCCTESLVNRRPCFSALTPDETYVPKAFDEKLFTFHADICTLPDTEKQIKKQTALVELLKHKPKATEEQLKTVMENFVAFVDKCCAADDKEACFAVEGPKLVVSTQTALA
Details: Intact protein LC/MS covalent labelling, fragments in pools of five, 200 uM each, 4 °C. Particulars: 24 h, 4 °C, pool of five; 200 µM; covalent.

Data set [1] in a line: in vitro. Details: species or system CCD841, HEK293. Conditions: human, hb2 cells, read-out: HB-2 Cells Viability (%).
Data set [2] in a line: in vitro. Particulars: human, hek293 cells. Also on record: species or system HB2, CCD841.
A short description of data set [3]: in vitro. Also on record: species or system HB2, HEK293. Conditions: human, ccd841 cells.

The record followed here is PMC6556873, “Rapid Covalent-Probe Discovery by Electrophile-Fragment Screening” (Journal of the American Chemical Society, 2019).

The term viability denotes a read-out of living cells in per cent, often relative to untreated cells.

Read-outs that look alike come from different tables or passages of the source.

T1 sequence (Q92831 whole entry): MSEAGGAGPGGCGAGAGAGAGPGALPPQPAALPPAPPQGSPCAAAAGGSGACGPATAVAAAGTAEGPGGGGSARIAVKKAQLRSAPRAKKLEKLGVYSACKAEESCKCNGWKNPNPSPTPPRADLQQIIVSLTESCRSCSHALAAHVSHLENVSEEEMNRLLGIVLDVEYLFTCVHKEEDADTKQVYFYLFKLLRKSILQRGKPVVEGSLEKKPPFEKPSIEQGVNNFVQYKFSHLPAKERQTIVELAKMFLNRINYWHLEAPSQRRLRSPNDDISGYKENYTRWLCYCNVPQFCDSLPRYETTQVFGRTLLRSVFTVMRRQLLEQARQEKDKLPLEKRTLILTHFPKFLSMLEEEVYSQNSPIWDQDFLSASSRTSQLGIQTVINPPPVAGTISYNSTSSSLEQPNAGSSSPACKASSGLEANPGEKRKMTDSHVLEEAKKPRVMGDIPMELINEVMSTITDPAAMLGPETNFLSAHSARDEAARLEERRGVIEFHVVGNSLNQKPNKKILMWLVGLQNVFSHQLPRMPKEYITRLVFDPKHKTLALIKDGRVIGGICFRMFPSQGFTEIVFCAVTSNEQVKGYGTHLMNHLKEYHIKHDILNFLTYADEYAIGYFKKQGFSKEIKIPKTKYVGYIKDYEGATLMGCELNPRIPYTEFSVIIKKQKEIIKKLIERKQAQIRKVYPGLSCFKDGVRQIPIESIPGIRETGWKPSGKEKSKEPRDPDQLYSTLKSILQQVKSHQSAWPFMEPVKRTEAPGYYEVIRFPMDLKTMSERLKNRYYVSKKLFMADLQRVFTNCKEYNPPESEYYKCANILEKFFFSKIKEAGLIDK
T2 sequence (P0C024 14-235): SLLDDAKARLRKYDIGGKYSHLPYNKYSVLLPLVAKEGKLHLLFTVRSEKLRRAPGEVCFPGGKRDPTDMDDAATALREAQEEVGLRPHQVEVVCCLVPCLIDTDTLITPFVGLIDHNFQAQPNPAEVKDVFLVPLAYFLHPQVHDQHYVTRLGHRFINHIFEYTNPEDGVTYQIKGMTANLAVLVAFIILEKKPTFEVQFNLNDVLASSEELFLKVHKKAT

As to `O=C(CCl)NC1CCCCNC1=O` (centres unmarked) [PCM-0102109], at PCAF, the PCAF was 0. On NUDT7, this molecule returned an NUDT7 of 0. Further, the OTUB2 on OTUB2 (OTUB2A) was found to be 0. In addition, on BSA, the BSA amounted to 0. Also, the viability at 48 h, 10 µM in the data set “in vitro [1]” was found to be 94.1%; in “in vitro [2]”, 109%; in “in vitro [3]” it was 103%.
Turning to `CC1(c2ccccc2)NC(=O)N(NC(=O)CCl)C1=O` (centres unmarked) [PCM-0102428], the PCAF at PCAF worked out at 0. The NUDT7 on NUDT7 is reported as 0. The molecule further registered an OTUB2 on OTUB2 (OTUB2A) of 0. Also, the BSA on BSA is on record as 0. For the same molecule, the viability at 48 h, 10 µM in the data set “in vitro [1]” was found to be 91.2%; in “in vitro [2]” it was 103%; in the data set “in vitro [3]” it was 81.4%.
At PCAF, `CC(=O)c1cccc(NC(=O)CCl)c1` [PCM-0102965] registered a PCAF of 0. Also, at NUDT7, the NUDT7 was found to be 0. For the same molecule, the OTUB2 on OTUB2 (OTUB2A) was 0.36. Further, the BSA at BSA stood at 0. Further, the results for the viability at 48 h, 10 µM in the data set “in vitro [1]”, in the data set “in vitro [2]” and in “in vitro [3]” were 2.5%, 1.9% and 11%, respectively.
On to `Cc1nc(-c2cccc(NC(=O)CCl)c2)cs1` [PCM-0102262], for which the PCAF on PCAF was 0. The molecule also gave an NUDT7 on NUDT7 of 0. The molecule further gave an OTUB2 on OTUB2 (OTUB2A) of 0.63. In addition, on BSA, the BSA was 0. For the same molecule, the viability at 48 h, 10 µM came out at 5.4% in “in vitro [1]”, 1.7% in “in vitro [2]” and 29.7% in “in vitro [3]”.
On to `N#Cc1c(NC(=O)CCl)sc2c1CCCCC2` [PCM-0102286], for which the PCAF at PCAF was found to be 0. In addition, on NUDT7, the NUDT7 was found to be 0.33. This molecule returned an OTUB2 on OTUB2 (OTUB2A) of 0. This molecule had a BSA at BSA of 0. In addition, the viability at 48 h, 10 µM amounted to 44.3% in the data set “in vitro [1]”, 39.9% in “in vitro [2]” and 73.9% in “in vitro [3]”.
At PCAF, `O=C(CCl)Nc1ccc2c(c1)OC(F)(F)O2` [PCM-0102738] showed a PCAF of 0. On NUDT7, this molecule gave an NUDT7 of 0. The molecule also gave an OTUB2 at OTUB2 (OTUB2A) of 0.41. This molecule had a BSA on BSA of 0. Moreover, the results for the viability at 48 h, 10 µM in “in vitro [1]”, in the data set “in vitro [2]” and in “in vitro [3]” were 30%, 14.2% and 72.2%, respectively.
Turning to `CC(=O)Nc1ccc(NC(=O)CCl)cc1` [PCM-0102114], on PCAF, the PCAF is given as 0. The same molecule came in with an NUDT7 on NUDT7 of 0. This molecule also returned an OTUB2 at OTUB2 (OTUB2A) of 0. Besides, the BSA on BSA is 0. The results for the viability at 48 h, 10 µM in the data set “in vitro [1]”, in the data set “in vitro [2]” and in the data set “in vitro [3]” were 69.9%, 56% and 57.7%, respectively.
Regarding `NC(=O)c1ccccc1NC(=O)CCl` [PCM-0102758], the PCAF at PCAF is 0. The same molecule registered an NUDT7 on NUDT7 of 0. Besides, the OTUB2 on OTUB2 (OTUB2A) is listed as 0. For the same molecule, the BSA on BSA came out at 0. The viability at 48 h, 10 µM in “in vitro [1]” stood at 69.6%; in “in vitro [2]”, 53.5%; in the data set “in vitro [3]”, 66.1%.
`O=C(CCl)Nc1nc2ccc(F)cc2s1` [PCM-0102294]: the PCAF on PCAF came to 0. In addition, the NUDT7 at NUDT7 is reported as 0.89. Besides, at OTUB2 (OTUB2A), the OTUB2 stood at 0. Also, the BSA at BSA turned out to be 0. Also, the viability at 48 h, 10 µM in the data set “in vitro [1]” is 53%; in the data set “in vitro [2]”, 76.7%; in the data set “in vitro [3]”, 62.7%.
For the molecule `O=C(CCl)NC(=O)Nc1ccc(Br)cc1` [PCM-0102308], the PCAF at PCAF was determined as 0. This molecule showed an NUDT7 on NUDT7 of 0.17. Also, on OTUB2 (OTUB2A), the OTUB2 was 0.1. This molecule also came in with a BSA on BSA of 0.11. In addition, the viability at 48 h, 10 µM worked out at 78.8% in the data set “in vitro [1]”, 71.6% in the data set “in vitro [2]” and 89.9% in “in vitro [3]”.
With `CC(C)C(C#N)N1CCN(C(=O)CCl)CC1` (centres unmarked) [PCM-0102263], the PCAF on PCAF stood at 0. For the same molecule, the NUDT7 at NUDT7 came out at 0.17. This molecule also had an OTUB2 on OTUB2 (OTUB2A) of 0.31. In addition, the BSA on BSA came out at 0. Further, the figures for the viability at 48 h, 10 µM in “in vitro [1]”, in the data set “in vitro [2]” and in “in vitro [3]” were 64%, 13.9% and 65.2%, respectively.
Regarding `O=C(CCl)Nc1ccc2c(c1)C(=O)c1ccccc1C2=O` [PCM-0102194], the PCAF on PCAF was determined as 0. For the same molecule, at NUDT7, the NUDT7 is 0. Further, the OTUB2 on OTUB2 (OTUB2A) is listed as 0. In addition, the BSA at BSA was 0. Also, the viability at 48 h, 10 µM in the data set “in vitro [1]” amounted to 1.4%; in the data set “in vitro [2]” it was 0.7%; in “in vitro [3]”, 13.7%.
As to `O=C(CCl)Nc1ccccc1N1CCCCC1` [PCM-0102860], the PCAF at PCAF is 0. The NUDT7 on NUDT7 is reported as 0. The OTUB2 at OTUB2 (OTUB2A) was 0. The molecule further gave a BSA on BSA of 0. The results for the viability at 48 h, 10 µM in “in vitro [1]”, in the data set “in vitro [2]” and in “in vitro [3]” were 111%, 97.5% and 109%, respectively.
Take `O=C(CCl)Nc1ccc(F)c(F)c1` [PCM-0102328]: the PCAF at PCAF amounted to 0. Moreover, the NUDT7 on NUDT7 was determined as 0. Moreover, on OTUB2 (OTUB2A), the OTUB2 was 0.31. In addition, at BSA, the BSA worked out at 0.24. The viability at 48 h, 10 µM stood at 14.3% in the data set “in vitro [1]”, 1.4% in the data set “in vitro [2]” and 30.4% in “in vitro [3]”.
Consider `Cc1ccc(C(C)NC(=O)CCl)cc1C` (centres unmarked) [PCM-0102270], for which the PCAF on PCAF was 0. The molecule also had an NUDT7 on NUDT7 of 0. This molecule had an OTUB2 on OTUB2 (OTUB2A) of 0.51. This molecule also yielded a BSA at BSA of 0. The viability at 48 h, 10 µM came out at 80.2% in “in vitro [1]”, 67.9% in the data set “in vitro [2]” and 78.1% in the data set “in vitro [3]”.
As for `COc1cccc(NC(=O)CCl)c1` [PCM-0102410], the PCAF at PCAF is listed as 0. For the same molecule, on NUDT7, the NUDT7 was determined as 0. The OTUB2 on OTUB2 (OTUB2A) is reported as 0. The BSA on BSA turned out to be 0.21. For the same molecule, the results for the viability at 48 h, 10 µM in “in vitro [1]”, in the data set “in vitro [2]” and in “in vitro [3]” were 34.1%, 7.5% and 63.5%, respectively.
The molecule `C=CC(=O)N1CCC(CS(C)(=O)=O)C1` (centres unmarked) [PCM-0102765] displayed a PCAF on PCAF of 0. In addition, at NUDT7, the NUDT7 worked out at 0. The OTUB2 at OTUB2 (OTUB2A) is listed as 0. This molecule registered a BSA at BSA of 0. The viability at 48 h, 10 µM in “in vitro [1]” came to 98.4%; in “in vitro [2]”, 85.1%; in the data set “in vitro [3]”, 101%.
In turn, `CC(C)(C)C1CCc2sc(C(=O)NNC(=O)CCl)cc2C1` (centres unmarked) [PCM-0102260] had a PCAF at PCAF of 0. The molecule also came in with an NUDT7 at NUDT7 of 0. On OTUB2 (OTUB2A), this molecule gave an OTUB2 of 0.67. This molecule returned a BSA at BSA of 0. Further, the viability at 48 h, 10 µM in the data set “in vitro [1]” is 64%; in the data set “in vitro [2]”, 10.2%; in the data set “in vitro [3]” it was 29.7%.
At PCAF, `C=CC(=O)NC1CCC2(CC1)OCCO2` [PCM-0102564] yielded a PCAF of 0. Also, the NUDT7 on NUDT7 is 0. On OTUB2 (OTUB2A), this molecule came in with an OTUB2 of 0. In addition, the BSA at BSA is listed as 0. The figures for the viability at 48 h, 10 µM in the data set “in vitro [1]”, in “in vitro [2]” and in “in vitro [3]” were 109%, 75.1% and 132%, respectively.
For the molecule `CC(C)(C)c1cc(NC(=O)CCl)on1` [PCM-0102348], the PCAF at PCAF is 0. The same molecule came in with an NUDT7 on NUDT7 of 0. The molecule further had an OTUB2 at OTUB2 (OTUB2A) of 0. At BSA, the BSA was found to be 0. For the same molecule, the viability at 48 h, 10 µM worked out at 32.8% in the data set “in vitro [1]”, 60.9% in “in vitro [2]” and 59.9% in the data set “in vitro [3]”.
